Test results taken from ChEMBL document CHEMBL1201862, “PubChem BioAssay data set” (2004).
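Cultured in 96-well plates, cells were exposed to test compound for 48 hours across five concentrations. GI50 marks 50% less growth.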 The source made the active and inactive calls. Rule as the data show it: active = GI50 up to about 1.1 µM and inactive = higher.

Legend:
Test in all cases: NCI anticancer screen, dose series, 48 h
[1] = tested on: OVCAR-4
[2] = tested on: ACHN
[3] = tested on: NCI-H460
[4] = tested on: A498
[5] = tested on: RPMI-8226
[6] = tested on: SR
[7] = tested on: PC-3
[8] = tested on: HCC 2998
[9] = tested on: T47D
[10] = tested on: DU-145
[11] = tested on: MDA-N
[12] = tested on: UACC-62
[13] = tested on: OVCAR-5
[14] = tested on: 786-0
[15] = tested on: UACC-257
[16] = tested on: NCI/ADR-RES
[17] = tested on: HT-29
[18] = tested on: OVCAR-3
[19] = tested on: CAKI-1
[20] = tested on: BT-549

Measured: GI50

CC1(C)OC(=O)N(c2ccccc2)C12C=Cc1cc([N+](=O)[O-])ccc1O2 (stereo not given)
inactive: [1] 61.8 µM | [2] 97.1 µM | [3] 49.9 µM | [4] 32.4 µM | [5] 48.5 µM | [6] 19.6 µM | [7] 22.7 µM | [8] 29.2 µM | [9] 33 µM | [10] 29.4 µM | [11] 22.6 µM | [12] 31.3 µM | [13] 26.9 µM | [14] 77.3 µM | [15] 23.5 µM | [16] 30.2 µM | [17] 35.5 µM | [18] 21.7 µM | [19] 50.1 µM | [20] 51.6 µM

COc1ccc(N2C(=O)c3cccnc3S2(=O)=O)cc1
inactive: [1] > 100 µM | [2] > 100 µM | [3] > 100 µM | [4] > 100 µM | [5] > 100 µM | [6] > 100 µM | [7] > 100 µM | [8] > 100 µM | [9] > 100 µM | [10] > 100 µM | [11] > 100 µM | [12] > 100 µM | [13] > 100 µM | [14] > 100 µM | [15] > 100 µM | [16] > 100 µM | [17] > 100 µM | [18] > 100 µM | [19] > 100 µM | [20] > 100 µM
